Consider one compound from patent US20200352880A1 (priority 2019, published 2020).

The test system of assay [1] is neutrophils. Briefly: E44-induced NET formation: DNA release (PicoGreen) and neutrophil elastase (NETosis Assay Kit) from neutrophils. It counts as cell-based. The following applies: concentration-dependent. An excerpt: (§1) Since DNA is a major component of NETs, NET formation is first examined by determining the amount of DNA released from neutrophils. […] Methods are described in Reference 1.
The methods of neutrophil isolation and preparation are similar to those described previously, and the amount of NE is detected by following kit instructions.

Assay [2] concerns E44. Briefly: killing, NET trapping and phagocytosis of E44 by neutrophils. In kind it is cell-based, E. coli. As to the method: (§2) The bactericidal functions of neutrophils include phagocytosis and NET-mediated killing. […] Experiments are performed according to the procedures described in Reference 2. […] The bacteria are collected and spread over Brain Heart Infusion (BHI) agar plates containing rifampin and allowed to culture for 12-16 hours, then the number of bacterial colonies of each sample is counted. […] After 1-hour incubation, the samples are centrifuged, collected, and mounted on microscope slides, which are sealed after DAPI staining, then phagocytosis of PMNs is observed and phagocytized particles are counted under a fluorescence microscope. […] However, early phagocytosis is not accompanied by a significant change in PMN structure when MOI<50. When MOI>50, each PMN on average includes at least 50 E44, a significant nuclear morphological change occurs.

Assay [3] deals with neutrophils. Briefly: MRSA-induced NET formation (release of neutrophil DNA). It counts as cell-based.
Excerpt: as §1
(§3) Experimental procedures of MEM enhancing NET formation and facilitating killing of MRSA by neutrophils are the same as described previously.

The test system of a further assay is MRSA. Briefly: killing of MRSA by neutrophils. It counts as cell-based, methicillin-resistant Staphylococcus aureus. Conditions: increased concentration of MEM (1-25 μM); concentration-dependent. As to the method: as §2, §3
The subject of assay [4] is E44. The assay is described as follows: NET formation in E44-infected mice (serum free DNA and NE). In kind it is in vivo, C57 mice. Conditions: MEM 5-10 μg/g body weight intraperitoneally, 24 hours. As to the method: After 24 hours, serum is obtained from blood samples collected from hearts, and the amounts of free DNA and neutrophil elastase (NE) in the serum of each mouse are determined using PicoGreen and Mouse PMN Elastase ELISA Kit (R&D Systems) respectively.

The subject of assay [5] is E44. Briefly: spread of E44 in infected mice (bacterial counts in blood, livers, lungs, spleens). In kind it is in vivo, C57 mice. The following applies: MEM 5-10 μg/g body weight intraperitoneally, 24 hours. As to the method:
After 24 hours of E44 infection, the mice are dissected to obtain blood, livers, lungs, and spleens under aseptic condition. The obtained blood, after performing an appropriate serial dilution, is spread over BHI (containing rifampin) agar plates. The obtained livers, lungs, and spleens are precisely weighed, added with pre-cooled sterile PBS in a ratio of 0.1 g/ml, and fully homogenized. The homogenates, after performing an appropriate serial dilution, are spread over BHI (containing rifampin) agar plates.
After confirming that MEM may enhance NET formation in bacteria-infected mice, whether MEM may block the spread of bacteria in mice is discussed. […] After 24 hours of bacterial infection, the mice are dissected to obtain blood, livers, lungs, and spleens under aseptic condition for bacterial count determination.

The subject of assay [6] is E44. The assay is described as follows: killing of E44 by phagocytosis in dHL60 cells after CHRNA7 siRNA silencing. Conditions: MEM dose up to 50 μM. It counts as cell-based, E. coli. As to the method:
FIGS. 5A, 5B, 5C, and 5D illustrate the influence on phagocytosis by PMNs after gene silencing of CHRNA7 and S100A9. 2×10^6/ml HL60 cells are treated with 1.3% DMSO for cell stimulation and induction, and cell morphology is observed under an inverted microscope after 4-5 days. Compared to the control group, the cell volume gradually enlarges, granulocyte nuclear shapes such as kidney-shaped (banded) nucleus, segmented (multi-lobed) nucleus, bean-shaped nucleus appear after 48 hours and gradually increase over time. Cell status of each experimental group is identified using Typan Blue Exclusion Test and Wright-Giemsa Stain Method to meet the requirements for cell quality in follow-up studies. Differentiated neutrophils are added with CHRNA7 and S100A9siRNA, respectively, and treated with lipofectamine 2000 in 24-well plates, a supplemental complete cell culture medium is added after 6 hours to incubate for 48 hours, and the expression of CHRNA7 and S100A9 in differentiated HL60 (dHL60) cells is examined. Control siRNA acts as the control group, and GAPDH represents the housekeeping gene.
Samples are prepared by the dHL60 cells and E44 in a ratio of 1:5 and allowed to interact for 1 hour.

The test system of the next assay is α7nAChR and S100A9. The assay is described as follows: immunofluorescence of α7nAChR and S100A9 in PMNs incubated with E44. It counts as cell-based. The following applies: PMNs with bacteria (E44), compared to bacteria groups. As to the method:
The next step is to further examine whether alpha7 nicotinic acetylcholine receptor (α7nAChR) is associated with antimicrobial protein S100A9 during the process of phagocytizing E44 by PMNs. […] Next, an immunofluorescence staining test is performed on the samples as follows: a primary antibody is added to incubate with α7nAChR and S100A9 overnight at 4° C., and then the corresponding FITC and PE-conjugated secondary antibodies are added to incubate for 1 hour at room temperature, after mounting the samples on microscope slides with DAPI sealing, positioning and expression of α7nAChR and S100A9 are observed under a fluorescence microscope. Compared to the control group, S100A9 (red) is redistributed to the cell edge and area around the nucleus (FIG. 6) after infected with E44, it is observed that α7nAChR (green) and S100A9 (red) are located in the same position with presenting of colocalization, and the expression of both is elevated, α7nAChR (green) and S100A9 (red) also appear to have a high degree of colocalization(R close to 1) after ImageJ software analysis.

The next assay deals with PMNs. Briefly: immunofluorescence of MPO, S100A9 and DNA in PMNs (NET formation). It counts as cell-based. The following applies: PMA groups and E44 groups treated with MEM.
For another assay, the system named is mouse BMECs. The assay is described as follows: gene expression profile of E44-infected BMECs by Next Generation Sequencing. In kind it is cell-based. The following applies: E44 infection 0.5 hours. As to the method: After the mouse BMECs are infected with E44 for 0.5 hours, the cells are collected to extract RNA, which is sent to Hua-Da Company (China) for Next Generation Sequencing analysis.
After the mouse BMECs are infected with E44 for 0.5 hours, the cells are collected to extract RNA, which is sent to Hua-Da Company (China) to analyze alterations on gene expression profile using Next Generation Sequencing and look for differentially expressed genes, a total of 978 differentially expressed genes are found.

Another assay deals with cBMECs. The assay is described as follows: number of circulating brain microvascular endothelial cells (cBMECs) in blood. Conditions: in vivo. As to the method: The protocol is prepared as follows:
According to manufacturer's instructions, Dynabeads M-450 solution with a final concentration of 4×10^8 beads/ml is prepared by Hank's Balanced Salt Solution. BMECs in brain tissues and blood are isolated using UEA I. The BMECs from the brain tissues are cultured with RPMI-1640 medium containing 10% fetal bovine serum and identified using CD146 and Mfsd2a antibodies.

A further assay addresses α7nAChR (Homo sapiens, UniProt P36544). Conditions: cited from earlier work.

α7nAChR, sequence (P36544 23-502): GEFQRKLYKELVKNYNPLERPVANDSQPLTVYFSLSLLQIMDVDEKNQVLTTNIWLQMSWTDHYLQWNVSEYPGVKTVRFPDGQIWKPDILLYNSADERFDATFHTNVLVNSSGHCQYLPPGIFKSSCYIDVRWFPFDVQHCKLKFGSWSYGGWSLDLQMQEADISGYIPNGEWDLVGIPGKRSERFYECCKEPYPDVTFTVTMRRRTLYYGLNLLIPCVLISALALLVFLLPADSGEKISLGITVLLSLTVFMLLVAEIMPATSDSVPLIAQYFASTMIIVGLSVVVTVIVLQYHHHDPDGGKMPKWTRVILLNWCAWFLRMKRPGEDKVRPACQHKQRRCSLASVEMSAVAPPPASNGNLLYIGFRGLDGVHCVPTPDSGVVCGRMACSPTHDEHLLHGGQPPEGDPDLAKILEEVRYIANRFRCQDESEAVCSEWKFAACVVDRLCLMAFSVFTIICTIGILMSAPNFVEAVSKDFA

On to `C[C@]12C[C@@H]3C[C@](C)(C1)C[C@@](N)(C3)C2.Cl` [MEM, 3,5-Dimethyl-1-aminoadamantane hydrochloride], for which the “release of DNA from neutrophils under the effect of E44” value in the assay with neutrophils [1] (E44 MOI=10, different concentrations of MEM, 4 hours) is recorded as “significantly enhanced”. Further, the “production of neutrophil elastase (NE) under the effect of E44” value in the assay on neutrophils [1] (E44 with addition of MEM) is “significantly increased”. Further, the “phagocytosis of E44 by PMNs” value with E44 [2] (50 μM MEM, E44 MOI=1, 5, 50, 100, 1-hour incubation, versus E44 groups) is recorded as “more E44 are phagocytized”. For the same compound, the “NETs trapping of E44” value in the assay on E44 [2] (DNase used to dissolve DNA) is “concentration-dependently enhance”. In addition, in the assay with E44 [2] (E44 MOI=10, MEM 0, 10, 20, 50 μM, 2 hours, with or without Cytochalasin D), the “killing of E44 by neutrophils, including phagocytosis and NET-mediated killing” value was “concentration-dependently enhance”. In the assay with neutrophils [3], the “release of neutrophil DNA under the effect of MRSA” value is reported as “significantly enhance”. In addition, the “survival rate of MRSA” value with MRSA is listed as “gradually decreases”. In the assay on E44 [4], the “NE in the blood (serum) of E44-infected mice” value is given as “significantly enhance” and the “free DNA in the blood (serum) of E44-infected mice” value is given as “significantly enhance”. Further, in the assay with E44 [5], the “spread of bacteria (E44) in mice” value is “significantly block”. Moreover, the “effect of MEM on phagocytizing bacteria by PMNs after CHRNA7 down-regulation” value in the assay with E44 [6] is on record as “not obvious”. Moreover, in the assay with α7nAChR and S100A9, the “degree of colocalization of α7nAChR and S100A9” value is on record as “remarkably reduced”; the “expression of α7nAChR and S100A9” value is on record as “significantly decreased”. Besides, the “MPO, S100A9 and DNA formation (NET formation)” value with PMNs was “a large number of MPO (green), S100A9 (red), and DNA (blue) are formed”. Further, in the assay on mouse BMECs, the “E44-induced alterations on gene expression” value is recorded as “reverse”; the “anti-inflammatory genes IL-33, IL-18rap, MMP10, Irs1 expression” value is listed as “significantly up-regulate”; the “pro-inflammatory genes A20, CISH, Ptgds, ZEP36 expression” value is recorded as “down-regulate”. For the same compound, in the assay with cBMECs, the “number of cBMECs in blood” value is recorded as “reduce”. On α7nAChR, the “inhibitory effect on α7nAChR compared with inhibitory effect on NMDAR” value is on record as “stronger”.
